From patent US20120129833A1, “CYCLIC KETOENOLS FOR THERAPY” (BAYER PHARMA AKTIENGESELLSCHAFT, priority 2010, published 2012)
pIC50: −log10 of the molar value.

Tests used:
[1] = target: T1, recombinant human ACC1 (acetyl-CoA carboxylase 1) (Homo sapiens, UniProt Q13085); experiment: Human ACC1 enzyme assay (HTRF ADP detection); assay type: biochemical; details: 50 μM ATP, 20 μM acetyl-CoA, 15 min pre-incubation, 20 min at 22° C.; read-out: ACC 1 IC50;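 also: ADP by-product quantified by competitive HTRF immunoassay with europium cryptate anti-ADP antibody and d2-labelled ADP, read after 1 h binding at 22 °C, enzyme near 2.5 ng/µl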
T1 construct: NM_198834, amino acids 39—end; FLAG (C); made in house; host or cells: baculovirus-transfected insect cells (Hi5)
Description: The basic principle of the assay is the measurement of adenosine diphosphate (ADP), which is formed as a by-product, by means of an HTRF®-based competitive immunoassay (HTRF=Homogeneous Time Resolved Fluorescence).
The amount of complex of d2-labelled ADP and europium cryptate-labelled anti-ADP antibody was then determined by measuring the resonance energy transfer of europium cryptate to d2.

[2] = target: T2, ACC2 (acetyl-CoA carboxylase 2) (Homo sapiens, UniProt O00763); experiment: Human ACC2 enzyme assay (HTRF ADP detection); assay type: biochemical; details: 20 μM acetyl-CoA, 15 min pre-incubation, 20 min at 22° C.; read-out: ACC 2 IC50
T2 construct: catalogue no; 50201, amino acids 39—end, expressed in baculovirus-transfected Sf9 insect cells; His (C); purchased BPS Bioscience (San Diego, Calif.) 50201; host or cells: baculovirus-transfected Sf9 insect cells
T2 sequence (O00763 39-2458 limits assumed): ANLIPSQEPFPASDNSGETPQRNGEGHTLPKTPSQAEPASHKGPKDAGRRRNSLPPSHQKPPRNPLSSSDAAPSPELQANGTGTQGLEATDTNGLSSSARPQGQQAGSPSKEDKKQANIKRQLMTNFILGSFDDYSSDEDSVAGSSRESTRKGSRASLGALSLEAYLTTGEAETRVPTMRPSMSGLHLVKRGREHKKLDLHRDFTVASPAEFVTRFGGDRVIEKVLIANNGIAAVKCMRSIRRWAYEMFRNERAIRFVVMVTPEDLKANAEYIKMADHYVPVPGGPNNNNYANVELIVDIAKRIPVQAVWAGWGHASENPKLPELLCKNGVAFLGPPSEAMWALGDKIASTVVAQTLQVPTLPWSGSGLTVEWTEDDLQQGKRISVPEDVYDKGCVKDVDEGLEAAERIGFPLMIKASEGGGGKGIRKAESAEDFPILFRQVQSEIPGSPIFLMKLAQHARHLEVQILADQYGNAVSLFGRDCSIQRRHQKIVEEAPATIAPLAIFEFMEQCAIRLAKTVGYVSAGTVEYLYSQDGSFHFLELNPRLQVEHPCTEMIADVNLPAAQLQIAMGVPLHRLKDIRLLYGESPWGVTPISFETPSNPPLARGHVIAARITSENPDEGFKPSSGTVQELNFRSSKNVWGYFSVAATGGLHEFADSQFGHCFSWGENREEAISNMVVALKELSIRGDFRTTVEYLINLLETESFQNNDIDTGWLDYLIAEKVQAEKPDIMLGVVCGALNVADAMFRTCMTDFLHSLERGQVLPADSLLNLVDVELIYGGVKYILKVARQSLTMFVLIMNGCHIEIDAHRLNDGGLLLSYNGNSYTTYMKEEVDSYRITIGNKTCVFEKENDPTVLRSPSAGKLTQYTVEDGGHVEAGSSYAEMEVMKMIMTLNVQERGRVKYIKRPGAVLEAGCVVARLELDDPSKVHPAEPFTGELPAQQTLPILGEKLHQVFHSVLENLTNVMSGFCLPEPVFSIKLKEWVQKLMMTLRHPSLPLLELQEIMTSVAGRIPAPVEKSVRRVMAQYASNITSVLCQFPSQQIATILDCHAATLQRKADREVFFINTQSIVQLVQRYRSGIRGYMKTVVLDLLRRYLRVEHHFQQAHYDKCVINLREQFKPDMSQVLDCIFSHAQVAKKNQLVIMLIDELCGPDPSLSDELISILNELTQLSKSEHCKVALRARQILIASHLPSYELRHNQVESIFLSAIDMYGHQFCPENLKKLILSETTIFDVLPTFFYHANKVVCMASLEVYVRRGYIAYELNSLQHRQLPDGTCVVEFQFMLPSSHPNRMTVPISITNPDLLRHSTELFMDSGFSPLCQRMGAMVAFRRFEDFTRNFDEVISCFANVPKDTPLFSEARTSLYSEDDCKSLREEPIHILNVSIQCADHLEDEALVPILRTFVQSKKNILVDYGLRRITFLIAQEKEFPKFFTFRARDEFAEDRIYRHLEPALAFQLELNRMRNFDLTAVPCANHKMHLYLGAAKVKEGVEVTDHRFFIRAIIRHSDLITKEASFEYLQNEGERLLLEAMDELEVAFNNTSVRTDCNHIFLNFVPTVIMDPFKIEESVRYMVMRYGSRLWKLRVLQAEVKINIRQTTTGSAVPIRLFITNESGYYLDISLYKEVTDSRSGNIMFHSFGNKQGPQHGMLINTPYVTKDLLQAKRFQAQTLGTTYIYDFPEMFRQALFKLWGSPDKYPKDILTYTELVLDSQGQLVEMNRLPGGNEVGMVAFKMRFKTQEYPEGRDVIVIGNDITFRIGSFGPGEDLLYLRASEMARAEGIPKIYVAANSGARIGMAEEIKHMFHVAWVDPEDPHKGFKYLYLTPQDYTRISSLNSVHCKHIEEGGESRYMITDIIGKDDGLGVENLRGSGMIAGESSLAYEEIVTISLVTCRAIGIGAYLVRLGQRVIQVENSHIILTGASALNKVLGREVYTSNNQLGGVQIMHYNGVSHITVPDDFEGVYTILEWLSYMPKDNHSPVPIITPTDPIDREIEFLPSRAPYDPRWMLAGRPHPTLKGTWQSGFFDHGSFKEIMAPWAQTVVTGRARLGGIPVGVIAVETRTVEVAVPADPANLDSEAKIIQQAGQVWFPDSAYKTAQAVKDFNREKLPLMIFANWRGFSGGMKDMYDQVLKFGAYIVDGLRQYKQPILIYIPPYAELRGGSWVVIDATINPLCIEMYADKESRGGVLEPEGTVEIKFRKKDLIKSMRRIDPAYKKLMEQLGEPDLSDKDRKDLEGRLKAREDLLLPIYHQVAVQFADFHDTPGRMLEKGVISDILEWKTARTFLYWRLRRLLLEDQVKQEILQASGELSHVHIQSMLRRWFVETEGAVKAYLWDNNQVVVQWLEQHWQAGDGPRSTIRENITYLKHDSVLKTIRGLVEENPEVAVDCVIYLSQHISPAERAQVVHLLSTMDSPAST

Row | SMILES | pIC50 [1] | pIC50 [2]
1 | Cc1ccc(-c2ccc(Cl)cc2)cc1C1=C(O)C2(CCC3(CC2)OCC(C)CO3)NC1=O (centres unmarked) [Example 1-66, 3-(4′-chloro-4-methylbiphenyl-3-yl)-4-hydroxy-1′-methyl-9,13-dioxa-1-azadispiro[4.2.5.2]pentadec-3-en-2-one] | 6.39 | 5.81
2 | Cc1ccc(-c2ccc(Cl)cc2)cc1C1=C(O)C2(CCC3(CC2)OCC(C)(C)CO3)NC1=O [Example 1-67, 3-(4′-chloro-4-methylbiphenyl-3-yl)-4-hydroxy-11,11-dimethyl-9,13-dioxa-1-azadispiro[4.2.5.2]pentadec-3-en-2-one] | 6.18 | 5.84
3 | CC1COC2(CCC3(CC2)NC(=O)C(c2cc(-c4ccc(Cl)cc4)ccc2Cl)=C3O)O1 (centres unmarked) [Example 1-68, 11-(4,4′-dichlorobiphenyl-3-yl)-12-hydroxy-2-methyl-1,4-dioxa-9-azadispiro[4.2.4.2]tetradec-11-en-10-one] | 6.31 | 5.31
4 | CC1COC2(CCC3(CC2)NC(=O)C(c2cc(-c4ccc(Cl)cc4)ccc2Cl)=C3O)OC1 (centres unmarked) [Example 1-69, 3-(4,4′-dichlorobiphenyl-3-yl)-4-hydroxy-1′-methyl-9,13-dioxa-1-azadispiro[4.2.5.2]pentadec-3-en-2-one] | 6.19 | 4.96
5 | Cc1ccc(-c2ccc(Cl)cc2)c(C)c1C1=C(O)C2(CCC3(CC2)OCCO3)NC1=O [Example 1-70, 11-(4′-chloro-2,4-dimethylbiphenyl-3-yl)-12-hydroxy-1,4-dioxa-9-azadispiro[4.2.4.2]tetradec-11-en-10-one] | 6.17 | 5.74
6 | CC1OC2(CCC3(CC2)NC(=O)C(c2cc(-c4ccc(Cl)cc4)ccc2Cl)=C3O)OC1C (centres unmarked) [Example 1-71, 11-(4,4′-dichlorobiphenyl-3-yl)-12-hydroxy-2,3-dimethyl-1,4-dioxa-9-azadispiro[4.2.4.2]tetradec-11-en-10-one] | 6.18 | < 4.70
7 | COC1CCCC2(C1)NC(=O)C(c1c(C)ccc(-c3ccc(Cl)cc3)c1C)=C2O (centres unmarked) [Example 1-72, 3-(4′-chloro-2,4-dimethylbiphenyl-3-yl)-4-hydroxy-7-methoxy-1-azaspiro[4.5]dec-3-en-2-one] | 5.93 | 5.63
8 | CCOC1CCCC2(C1)NC(=O)C(c1c(C)ccc(-c3ccc(Cl)cc3)c1C)=C2O (centres unmarked) [Example 1-73, 3-(4′-chloro-2,4-dimethylbiphenyl-3-yl)-7-ethoxy-4-hydroxy-1-azaspiro[4.5]dec-3-en-2-one] | 6.04 | 5.30
9 | CCOC1CCC2(CC1)NC(=O)C(c1c(C)cc(C)c(-c3ccc(Cl)cc3)c1C)=C2O (centres unmarked) [Example 1-75, 3-(4′-chloro-2,4,6-trimethylbiphenyl-3-yl)-8-ethoxy-4-hydroxy-1-azaspiro[4.5]dec-3-en-2-one] | 5.10 | 6.42
10 | Cc1ccc(-c2ccc(Cl)cc2)cc1C1=C(O)[C@]2(CC[C@H](C)CC2)NC1=O [Example 1-76, 3-(4′-chloro-4-methylbiphenyl-3-yl)-4-hydroxy-8-methyl-1-azaspiro[4.5]dec-3-en-2-one] | 6.70 | 6.63
11 | Cc1ccc(-c2ccc(Cl)cc2)cc1C1=C(O)C2(CCCCC2)NC1=O [Example 1-77, 3-(4′-chloro-4-methylbiphenyl-3-yl)-4-hydroxy-1-azaspiro[4.5]dec-3-en-2-one] | 6.49 | 6.07
12 | Cc1ccc(-c2ccc(Cl)cc2)cc1C1=C(O)C(C)(C(C)C)NC1=O (centres unmarked) [Example 1-78, 3-(4′-chloro-4-methylbiphenyl-3-yl)-4-hydroxy-5-methyl-5-(propan-2-yl)-1,5-dihydro-2H-pyrrol-2-one] | 6.10 | 5.76
13 | CCOC1CCC2(CC1)NC(=O)C(c1cc(-c3cccc(Cl)c3)ccc1C)=C2O (centres unmarked) [Example 1-79, 3-(3′-chloro-4-methylbiphenyl-3-yl)-8-ethoxy-4-hydroxy-1-azaspiro[4.5]dec-3-en-2-one] | 6.07 | < 4.70
14 | COC1CCC2(CC1)NC(=O)C(c1cc(-c3cc(F)ccc3F)ccc1C)=C2O (centres unmarked) [Example 1-80, 3-(2′,5′-difluoro-4-methylbiphenyl-3-yl)-4-hydroxy-8-methoxy-1-azaspiro[4.5]dec-3-en-2-one] | 6.16 | < 4.70
15 | Cc1ccc(-c2ccc(Cl)cc2)cc1C1=C(O)C2(CCCC(C)C2)NC1=O (centres unmarked) [Example 1-82, 3-(4′-chloro-4-methylbiphenyl-3-yl)-4-hydroxy-7-methyl-1-azaspiro[4.5]dec-3-en-2-one] | 6.27 | 6.36
16 | CCCC1CCC2(CC1)NC(=O)C(c1cc(-c3ccc(Cl)cc3)ccc1C)=C2O (centres unmarked) [Example 1-83, 3-(4′-chloro-4-methylbiphenyl-3-yl)-4-hydroxy-8-propyl-1-azaspiro[4.5]dec-3-en-2-one] | 6.34 | 6.46
17 | Cc1ccc(-c2ccc(Cl)cc2)cc1C1=C(O)C2(CCCC2)NC1=O [Example 1-85, 3-(4′-chloro-4-methylbiphenyl-3-yl)-4-hydroxy-1-azaspiro[4.4]non-3-en-2-one] | 6.47 | 5.40

Row | SMILES | pIC50 [1] | pIC50 [2]
18 | Cc1ccc(-c2ccc(Cl)cc2)cc1C1=C(O)C(C)(C2CC2)NC1=O (centres unmarked) [Example 1-86, 3-(4′-chloro-4-methylbiphenyl-3-yl)-5-cyclopropyl-4-hydroxy-5-methyl-1,5-dihydro-2H-pyrrol-2-one] | 6.27 | 5.48
19 | CC[C@]1(OC)CC[C@@]2(CC1)NC(=O)C(c1c(C)ccc(-c3ccc(Cl)cc3)c1C)=C2O [Example 1-88, (5r,8r)-3-(4′-chloro-2,4-dimethylbiphenyl-3-yl)-8-ethyl-4-hydroxy-8-methoxy-1-azaspiro[4.5]dec-3-en-2-one] | 6.08 | 5.16
20 | CC[C@]1(OC)CC[C@@]2(CC1)NC(=O)C(c1c(C)ccc(-c3ccc(F)cc3)c1C)=C2O [Example 1-89, (5r,8r)-8-ethyl-3-(4′-fluoro-2,4-dimethylbiphenyl-3-yl)-4-hydroxy-8-methoxy-1-azaspiro[4.5]dec-3-en-2-one] | 6.07 | < 4.70
21 | CCC1CCC2(CC1)OC(=O)C(c1cc(-c3ccc(Cl)cc3)ccc1C)=C2O (centres unmarked) [Example 2-1, 3-(4′-chloro-4-methylbiphenyl-3-yl)-8-ethyl-4-hydroxy-1-oxaspiro[4.5]dec-3-en-2-one] | 6.61 | 5.38
22 | Cc1ccc(-c2ccc(Cl)cc2)c(C)c1C1=C(O)C2(CCCC2)OC1=O [Example 2-2, 3-(4′-chloro-2,4-dimethylbiphenyl-3-yl)-4-hydroxy-1-oxaspiro[4.4]non-3-en-2-one] | 6.59 | 5.28
23 | Cc1ccc(-c2ccc(Cl)cc2)cc1C1=C(O)C(C)(C)OC1=O [Example 2-3, 3-(4′-chloro-4-methylbiphenyl-3-yl)-4-hydroxy-5,5-dimethylfuran-2(5H)-one] | 6.24 | 4.93
24 | Cc1ccc(-c2ccc(Cl)cc2)c(C)c1C1=C(O)C2(CCCCC2)OC1=O [Example 2-4, 3-(4′-chloro-2,4-dimethylbiphenyl-3-yl)-4-hydroxy-1-oxaspiro[4.5]dec-3-en-2-one] | 6.72 | 5.82
25 | Cc1cc(C)c(-c2ccc(Cl)cc2)c(C)c1C1=C(O)C(C)(C)OC1=O [Example 2-5, 3-(4′-chloro-2,4,6-trimethylbiphenyl-3-yl)-4-hydroxy-5,5-dimethylfuran-2(5H)-one] | 5.83 | 5.24
26 | Cc1cc(C)c(-c2ccc(Cl)cc2)c(C)c1C1=C(O)C2(CCCCC2)OC1=O [Example 2-6, 3-(4′-chloro-2,4,6-trimethylbiphenyl-3-yl)-4-hydroxy-1-oxaspiro[4.5]dec-3-en-2-one] | 5.67 | 6.86
27 | COC1CCC2(CC1)OC(=O)C(c1cc(-c3ccccc3Cl)ccc1C)=C2O (centres unmarked) [Example 2-7, 3-(2′-chloro-4-methylbiphenyl-3-yl)-4-hydroxy-8-methoxy-1-oxaspiro[4.5]dec-3-en-2-one] | 6.30 | < 4.70
28 | Cc1ccc(-c2ccc(Cl)cc2)cc1C1=C(O)C2(CC2)OC1=O [Example 2-8, 6-(4′-chloro-4-methylbiphenyl-3-yl)-7-hydroxy-4-oxaspiro[2.4]hept-6-en-5-one] | 6.38 | < 4.70
29 | Cc1ccc(-c2ccc(Cl)cc2)cc1C1=C(O)C2(CCCOC2)OC1=O (centres unmarked) [Example 2-9, 3-(4′-chloro-4-methylbiphenyl-3-yl)-4-hydroxy-1,7-dioxaspiro[4.5]dec-3-en-2-one] | 6.48 | < 4.70
30 | Cc1ccc(-c2ccc(Cl)cc2)cc1C1=C(O)C2(CCCCC2)OC1=O [Example 2-10, 3-(4′-chloro-4-methylbiphenyl-3-yl)-4-hydroxy-1-oxaspiro[4.5]dec-3-en-2-one] | 6.79 | 5.63
31 | COC1CCCC2(C1)OC(=O)C(c1cc(-c3ccc(Cl)cc3)c(C)cc1C)=C2O (centres unmarked) [Example 2-11, 3-(4′-chloro-4,6-dimethylbiphenyl-3-yl)-4-hydroxy-7-methoxy-1-oxaspiro[4.5]dec-3-en-2-one] | 6.18 | 5.81
32 | COC1CCCC2(C1)OC(=O)C(c1c(C)cc(C)c(-c3ccc(Cl)cc3)c1C)=C2O (centres unmarked) [Example 2-12, 3-(4′-chloro-2,4,6-trimethylbiphenyl-3-yl)-4-hydroxy-7-methoxy-1-oxaspiro[4.5]dec-3-en-2-one] | 5.38 | 5.94
33 | COC1CCCC2(C1)OC(=O)C(c1cc(-c3ccc(Cl)cc3)ccc1Cl)=C2O (centres unmarked) [Example 2-13, 3-(4,4′-dichlorobiphenyl-3-yl)-4-hydroxy-7-methoxy-1-oxaspiro[4.5]dec-3-en-2-one] | 6.09 | < 4.70
34 | COC1CCCC2(C1)OC(=O)C(c1cc(-c3ccc(Cl)cc3)ccc1C)=C2O (centres unmarked) [Example 2-14, 3-(4′-chloro-4-methylbiphenyl-3-yl)-4-hydroxy-7-methoxy-1-oxaspiro[4.5]dec-3-en-2-one] | 6.25 | 4.71
